Source: patent US12630530B2, “FGFR inhibitor compound and use thereof” (HENAN MEDINNO PHARMACEUTICAL TECHNOLOGY CO., LTD., priority 2020, dated 2026)

Legend:
Type in all cases: biochemical
Details in all cases: Table 3; same method as Assay I, different experimental operator
FGFR3 V555M = target: T1, FGFR3 V555M (Homo sapiens, UniProt P22607, V555M); assay: Assay III: inhibitory activity against FGFR mutants (method of Assay I, different operator)
T1 construct: purchased Signalchem F06-12GG
Procedure: (§1) 1×Kinase reaction buffer was formulated with 1×volume of 5× kinase reaction buffer and 4×volume of water; 5 mM MgCl2; and 1 mM DTT.
(§2) 2.3 Screening of Compounds: • 1. Diluting a compound 4-fold in a dilution plate with DMSO, with a starting compound concentration of 2 mM (4 mM for Nentedanib). • 2. Diluting the compound 40-fold into 1× kinase reaction buffer and shaking it on a shaker for 20 minutes. • 3. […] Adding 1 μl of the compound diluted in buffer to each well, sealing the plate with a sealing membrane and centrifuging the plate at 1000 g for 30 seconds and leaving it at room temperature for 10 minutes. • 6. Formulating 2.5×TK-substrate-biotin and ATP mixture with 1× enzyme reaction buffer and adding 2 μl of K-substrate-biotin/ATP mixture to the reaction plate. • 7. Sealing the plate with a sealing membrane and centrifuging the plate at 1000 g for 30 seconds and allowing it to react at room temperature for 50 minutes. • 8. Formulating 4×Sa-XL 665 (250 nM) with HTRF assay buffer. • 9. Adding 5 μl Sa-XL 665 and 5 μl TK-Antibody-Cryptate to each well, centrifuging it at 1000 g for 30 seconds, and allowing it to react for 1 hour at room temperature. • 10. Reading fluorescence signals at 615 nm (Cryptate) and 665 nm (XL665) with Biotek. 3. Data Analysis
(§3) 3.1 Calculation of the ratio for each well: the ratio was calculated as 665/615 nm.
(§4) 3.3 Calculation of IC50 and plotting of inhibition curves for the compounds.
(§5) The IC50 (half inhibition concentration) of a compound was obtained using the following non-linear fitting equation, wherein data analysis was performed using Graphpad 6.0 software.
(§6) Data were exported from Envision and analyzed manually. The ratios were converted to inhibition rates and IC50 was calculated by Prism GraphPad 6.0 from the inhibition rates. IC50 was calculated again by the ratios to verify accuracy of the results.
(§7) Assay III: Determination of Inhibitory Activity Against FGFR Mutants

FGFR2 V564F = target: T2, FGFR2 V564F (Homo sapiens, UniProt P21802, V564F); assay: as above
T2 construct: purchased Signalchem F05-12FG
Procedure: as §1, §2, §3, §4, §5, §6, §7

FGFR1 V561M = target: T3, FGFR1 V561M (Homo sapiens, UniProt P11362, V561M); assay: as above
T3 construct: purchased Signalchem F04-13G
Procedure: as §1, §2, §3, §4, §5, §6, §7

VEGFR2 = target: T4, VEGFR2 (Homo sapiens, UniProt P35968); assay: Assay III: kinase inhibition (method of Assay I, different operator), VEGFR2
T4 construct: purchased Carna 08-191
Procedure: as §1
2.3 Screening of Compounds: • 1. Diluting a compound 4-fold in a dilution plate with DMSO, with a starting compound concentration of 2 mM (4 mM for Nentedanib). • 2. Diluting the compound 40-fold into 1× kinase reaction buffer and shaking it on a shaker for 20 minutes. • 3. Formulating 2×FGFR1 V561M/FGFR2 V564F/FGFR3 K650E/VEGFR2 with 1× of enzyme reaction buffer. • 4. Adding 2 μl FGFR1 V561M/FGFR2 V564F/FGFR3 K650E/VEGFR2 kinase (formulated in step 3) to each well of the reaction plate. • 5. Adding 1 μl of the compound diluted in buffer to each well, sealing the plate with a sealing membrane and centrifuging the plate at 1000 g for 30 seconds and leaving it at room temperature for 10 minutes. • 6. Formulating 2.5×TK-substrate-biotin and ATP mixture with 1× enzyme reaction buffer and adding 2 μl of K-substrate-biotin/ATP mixture to the reaction plate. • 7. Sealing the plate with a sealing membrane and centrifuging the plate at 1000 g for 30 seconds and allowing it to react at room temperature for 50 minutes. • 8. Formulating 4×Sa-XL 665 (250 nM) with HTRF assay buffer. • 9. Adding 5 μl Sa-XL 665 and 5 μl TK-Antibody-Cryptate to each well, centrifuging it at 1000 g for 30 seconds, and allowing it to react for 1 hour at room temperature. • 10. Reading fluorescence signals at 615 nm (Cryptate) and 665 nm (XL665) with Biotek. 3. Data Analysis
as §3, §4
The IC50 (half inhibition concentration) of a compound was obtained using the following non-linear fitting equation, wherein data analysis was performed using Graphpad 6.0 software. Y=Bottom+(Top−Bottom)/(1+10^((Log IC50−X)*Hill Slope)) • X: log value of compound concentration; and Y: inhibition rate (% inh) 3.4 Validation of Results
as §6, §7

T4 sequence (P35968 20-1356): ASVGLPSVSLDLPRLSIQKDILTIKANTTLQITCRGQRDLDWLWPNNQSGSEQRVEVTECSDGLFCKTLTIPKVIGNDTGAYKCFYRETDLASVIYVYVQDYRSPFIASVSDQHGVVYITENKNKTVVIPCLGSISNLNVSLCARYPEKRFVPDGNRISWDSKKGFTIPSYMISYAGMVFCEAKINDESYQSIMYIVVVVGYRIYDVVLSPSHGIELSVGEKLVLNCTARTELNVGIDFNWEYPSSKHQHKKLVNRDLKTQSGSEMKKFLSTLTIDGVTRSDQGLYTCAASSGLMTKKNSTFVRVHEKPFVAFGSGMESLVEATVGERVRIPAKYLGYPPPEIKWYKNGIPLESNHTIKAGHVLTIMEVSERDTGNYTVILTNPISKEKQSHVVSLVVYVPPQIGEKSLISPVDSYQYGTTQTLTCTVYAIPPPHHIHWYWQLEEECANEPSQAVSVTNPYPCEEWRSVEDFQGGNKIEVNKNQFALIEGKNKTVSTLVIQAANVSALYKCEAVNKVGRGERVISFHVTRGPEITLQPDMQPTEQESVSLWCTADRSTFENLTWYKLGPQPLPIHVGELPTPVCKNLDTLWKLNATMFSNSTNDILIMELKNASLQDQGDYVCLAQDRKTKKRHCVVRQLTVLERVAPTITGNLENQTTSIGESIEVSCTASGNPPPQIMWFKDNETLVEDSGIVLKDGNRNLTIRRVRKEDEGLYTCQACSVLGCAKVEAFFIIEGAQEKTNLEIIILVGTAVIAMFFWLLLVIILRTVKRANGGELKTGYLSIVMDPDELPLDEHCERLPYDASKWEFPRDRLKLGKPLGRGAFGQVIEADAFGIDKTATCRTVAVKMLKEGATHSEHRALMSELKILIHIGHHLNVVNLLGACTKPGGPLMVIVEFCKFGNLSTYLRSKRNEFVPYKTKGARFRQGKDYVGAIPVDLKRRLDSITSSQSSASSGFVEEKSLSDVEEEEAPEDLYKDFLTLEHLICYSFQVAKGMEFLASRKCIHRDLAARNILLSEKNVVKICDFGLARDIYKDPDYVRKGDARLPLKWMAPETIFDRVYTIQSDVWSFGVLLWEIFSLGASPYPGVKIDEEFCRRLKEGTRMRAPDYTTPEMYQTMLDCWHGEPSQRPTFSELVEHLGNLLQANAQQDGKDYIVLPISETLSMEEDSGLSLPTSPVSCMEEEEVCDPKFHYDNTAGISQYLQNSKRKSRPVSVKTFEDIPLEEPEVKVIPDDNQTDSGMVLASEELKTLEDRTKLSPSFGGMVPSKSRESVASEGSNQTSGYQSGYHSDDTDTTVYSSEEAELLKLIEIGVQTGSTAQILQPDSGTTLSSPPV
T3 sequence (P11362 22-822 V561M): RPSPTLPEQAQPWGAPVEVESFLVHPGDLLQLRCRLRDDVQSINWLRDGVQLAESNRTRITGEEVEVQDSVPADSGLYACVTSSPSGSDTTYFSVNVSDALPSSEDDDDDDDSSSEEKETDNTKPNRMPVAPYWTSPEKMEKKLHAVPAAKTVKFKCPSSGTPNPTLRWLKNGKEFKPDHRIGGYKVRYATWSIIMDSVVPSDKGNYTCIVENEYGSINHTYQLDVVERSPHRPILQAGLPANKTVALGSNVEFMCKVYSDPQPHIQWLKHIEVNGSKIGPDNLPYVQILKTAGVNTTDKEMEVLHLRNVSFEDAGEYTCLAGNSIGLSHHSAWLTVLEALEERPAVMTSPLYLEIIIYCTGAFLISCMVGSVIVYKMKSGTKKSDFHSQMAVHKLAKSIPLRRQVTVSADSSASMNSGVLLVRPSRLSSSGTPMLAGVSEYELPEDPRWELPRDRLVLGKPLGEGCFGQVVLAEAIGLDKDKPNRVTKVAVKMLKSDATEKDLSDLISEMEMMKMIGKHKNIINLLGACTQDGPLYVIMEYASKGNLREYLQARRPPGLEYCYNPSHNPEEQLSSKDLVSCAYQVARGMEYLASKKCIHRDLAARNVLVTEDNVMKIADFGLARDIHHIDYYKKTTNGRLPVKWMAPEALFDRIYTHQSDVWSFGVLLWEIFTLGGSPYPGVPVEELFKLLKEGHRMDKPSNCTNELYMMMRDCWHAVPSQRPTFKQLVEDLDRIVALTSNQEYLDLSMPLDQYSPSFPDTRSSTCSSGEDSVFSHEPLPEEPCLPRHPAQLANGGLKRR
T1 sequence (P22607 23-806 V555M): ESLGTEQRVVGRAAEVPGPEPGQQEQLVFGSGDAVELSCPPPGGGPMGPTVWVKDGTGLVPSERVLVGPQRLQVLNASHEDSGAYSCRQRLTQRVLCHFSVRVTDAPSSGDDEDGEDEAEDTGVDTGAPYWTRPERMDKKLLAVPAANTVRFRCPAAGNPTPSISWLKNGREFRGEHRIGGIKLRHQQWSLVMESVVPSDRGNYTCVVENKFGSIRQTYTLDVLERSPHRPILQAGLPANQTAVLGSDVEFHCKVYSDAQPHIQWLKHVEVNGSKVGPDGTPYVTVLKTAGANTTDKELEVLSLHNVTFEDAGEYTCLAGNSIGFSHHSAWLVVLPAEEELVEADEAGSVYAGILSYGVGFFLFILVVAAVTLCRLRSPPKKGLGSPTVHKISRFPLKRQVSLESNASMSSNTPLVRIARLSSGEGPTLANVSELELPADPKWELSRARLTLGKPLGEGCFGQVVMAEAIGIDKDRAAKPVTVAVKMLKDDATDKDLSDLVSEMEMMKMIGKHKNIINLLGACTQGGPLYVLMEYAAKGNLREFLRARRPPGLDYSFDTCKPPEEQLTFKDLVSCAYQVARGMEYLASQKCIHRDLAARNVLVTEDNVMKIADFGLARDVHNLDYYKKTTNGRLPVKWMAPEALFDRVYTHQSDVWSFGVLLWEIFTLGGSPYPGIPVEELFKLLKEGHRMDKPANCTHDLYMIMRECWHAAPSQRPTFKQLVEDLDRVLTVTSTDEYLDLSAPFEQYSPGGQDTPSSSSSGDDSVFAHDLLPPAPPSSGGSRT
T2 sequence (P21802 22-821 V564F): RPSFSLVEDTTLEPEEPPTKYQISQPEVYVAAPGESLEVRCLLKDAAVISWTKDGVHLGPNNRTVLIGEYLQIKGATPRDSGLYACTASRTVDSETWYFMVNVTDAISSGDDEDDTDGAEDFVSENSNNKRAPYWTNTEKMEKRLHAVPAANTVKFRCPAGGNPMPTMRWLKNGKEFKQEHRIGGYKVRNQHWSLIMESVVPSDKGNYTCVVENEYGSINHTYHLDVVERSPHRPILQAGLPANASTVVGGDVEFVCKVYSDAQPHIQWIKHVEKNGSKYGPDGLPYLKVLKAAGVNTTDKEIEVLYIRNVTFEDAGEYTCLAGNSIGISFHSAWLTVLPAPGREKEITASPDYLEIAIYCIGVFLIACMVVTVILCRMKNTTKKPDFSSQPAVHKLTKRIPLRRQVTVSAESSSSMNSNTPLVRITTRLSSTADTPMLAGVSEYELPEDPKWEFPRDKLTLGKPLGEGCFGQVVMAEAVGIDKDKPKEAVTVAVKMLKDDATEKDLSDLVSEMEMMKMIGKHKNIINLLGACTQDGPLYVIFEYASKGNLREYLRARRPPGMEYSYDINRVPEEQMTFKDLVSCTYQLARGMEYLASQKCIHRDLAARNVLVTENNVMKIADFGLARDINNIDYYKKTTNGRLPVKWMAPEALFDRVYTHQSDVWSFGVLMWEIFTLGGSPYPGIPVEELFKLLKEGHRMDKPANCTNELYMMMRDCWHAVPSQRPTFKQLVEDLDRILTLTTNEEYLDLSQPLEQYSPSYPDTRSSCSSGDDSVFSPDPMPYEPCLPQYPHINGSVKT

IC50 (FGFR3 V555M) [nM]	IC50 (FGFR2 V564F) [nM]	IC50 (FGFR1 V561M) [nM]	IC50 (VEGFR2) [nM]	SMILES
1.3	0.43	3.3	201	CC(Oc1ccc2[nH]nc(C(=O)Nc3cnn(CC(=O)N(C)C)c3)c2c1)c1c(Cl)cncc1Cl (stereo not shown) [Compound 24, 5-(1-(3,5-dichloropyridin-4-yl)ethoxy)-N-(1-(2-(dimethylamino)-2-oxoethyl)-1H-pyrazol-4-yl)-1H-indazole-3-carboxamide]
			73	CCN1CCN(c2ccc(Nc3cc(N(C)C(=O)Nc4c(Cl)c(OC)cc(OC)c4Cl)ncn3)cc2)CC1 [Infigratinib, reference compound]
0.14	0.15	0.38	62	C[C@@H](Oc1ccc2[nH]nc(C(=O)Nc3cnn(C4CCN(C)C4)c3)c2c1)c1c(Cl)cncc1Cl (stereo partly drawn) [Compound 43, 5-((R)-1-(3,5-dichloropyridin-4-yl)ethoxy)-N-(1-(1-methylpyrrolidin-3-yl)-1H-pyrazol-4-yl)-1H-indazole-3-carboxamide]
0.59	0.4	3.7	61	C[C@@H](Oc1ccc2[nH]nc(C(=O)Nc3cnn(CC(C)(C)O)c3)c2c1)c1c(Cl)cncc1Cl [Compound 38, (R)-5-(1-(3,5-dichloropyridin-4-yl)ethoxy)-N-(1-(2-hydroxy-2-methylpropyl)-1H-pyrazol-4-yl)-1H-indazole-3-carboxamide]
2.9	1.8	11.4	255	CC(Oc1ccc2[nH]nc(C(=O)Nc3cnn(C(C)C)c3)c2c1)c1c(Cl)cncc1Cl (stereo not shown) [Compound 26, 5-(1-(3,5-dichloropyridin-4-yl)ethoxy)-N-(1-isopropyl-1H-pyrazol-4-yl)-1H-indazole-3-carboxainide]
0.14	0.1	0.34	62	C[C@@H](Oc1ccc2[nH]nc(C(=O)Nc3cnn(CC4CCCCN4C)c3)c2c1)c1c(Cl)cncc1Cl (stereo partly drawn) [Compound 45, 5-((R)-1-(3,5-dichloropyridin-4-yl)ethoxy)-N-(1-((1-methylpiperidin-2-yl)methyl)-1H-pyrazol-4-yl)-1H-indazole-3-carboxamide]
0.02	1.3	0.42	33	CCN1CCC(Cn2cc(NC(=O)c3n[nH]c4ccc(O[C@H](C)c5c(Cl)cncc5Cl)cc34)cn2)CC1 [Compound 40, (R)-5-(1-(3,5-dichloropyridin-4-yl)ethoxy)-N-(1-((1-ethylpiperidin-4-yl)methyl)-1H-pyrazol-4-yl)-1H-indazole-3-carboxamide]
0.27	0.16	0.29	89	C[C@@H](Oc1ccc2[nH]nc(C(=O)Nc3cnn(C4CC(O)C4)c3)c2c1)c1c(Cl)cncc1Cl (stereo partly drawn) [Compound 35, (R)-5-(1-(3,5-dichloropyridin-4-yl)ethoxy)-N-(1-(3-hydroxycyclobutyl)-1H-pyrazol-4-yl)-1H-indazole-3-carboxamide]
0.75	0.06	0.24	61	CCn1cc(NC(=O)c2n[nH]c3ccc(O[C@H](C)c4c(Cl)cncc4Cl)cc23)cn1 [Compound 34, (R)-5-(1-(3,5-dichloropyridin-4-yl)ethoxy)-N-(1-ethyl-1H-pyrazol-4-yl)-1H-indazole-3-carboxamide]
3	2.6	11	68	CC(Oc1ccc2[nH]nc(C(=O)Nc3cnn(CC(F)(F)F)c3)c2c1)c1c(Cl)cncc1Cl (stereo not shown) [Compound 28, 5-(1-(3,5-dichloropyridin-4-yl)ethoxy)-N-(1-(2,2,2-trifluoroethyl)-1H-pyrazol-4-yl)-1H-indazole-3-carboxamide]
0.22	0.18	0.37	84	C[C@@H](Oc1ccc2[nH]nc(C(=O)Nc3cnn(CC4CCN(C)C4)c3)c2c1)c1c(Cl)cncc1Cl (stereo partly drawn) [Compound 41, 5-((R)-1-(3,5-dichloropyridin-4-yl)ethoxy)-N-(1-((1-methylpyrrolidin-3-yl)methyl)-1H-pyrazol-4-yl)-1H-indazole-3-carboxamide]
0.21	0.26	3.6	145	CC(Oc1ccc2[nH]nc(C(=O)Nc3cnn(CCN4CCCC4)c3)c2c1)c1c(Cl)cncc1Cl (stereo not shown) [Compound 25, 5-(1-(3,5-dichloropyridin-4-yl)ethoxy)-N-(1-(2-(pyrrolidin-1-yl)ethyl)-1H-pyrazol-4-yl)-1H-indazole-3-carboxamide]
0.92	0.47	2.2	114	CC(Oc1ccc2[nH]nc(C(=O)Nc3cnn(CC(=O)N4CCCC4)c3)c2c1)c1c(Cl)cncc1Cl (stereo not shown) [Compound 23, 5-(1-(3,5-dichloropyridin-4-yl)ethoxy)-N-(1-(2-oxo-2-(pyrrolidin-1-yl)ethyl)-1H-pyrazol-4-yl)-1H-indazole-3-carboxamide]
0.55	0.39	1.1	145	C[C@@H](Oc1ccc2[nH]nc(C(=O)Nc3cnn(CC4CCCN(C)C4)c3)c2c1)c1c(Cl)cncc1Cl (stereo partly drawn) [Compound 44, 5-((R)-1-(3,5-dichloropyridin-4-yl)ethoxy)-N-(1-((1-methylpiperidin-3-yl)methyl)-1H-pyrazol-4-yl)-1H-indazole-3-carboxamide]
7.6	3.7	36	729	CC(Oc1ccc2[nH]nc(C(=O)Nc3ccc(CN4CCOCC4)cc3)c2c1)c1c(Cl)cncc1Cl (stereo not shown) [Compound 30, 5-(1-(3,5-dichloropyridin-4-yl)ethoxy)-N-(4-(morpholinomethyl)phenyl)-1H-indazole-3-carboxamide]
0.05	0.05	0.35	30	CCN1CC(Cn2cc(NC(=O)c3n[nH]c4ccc(O[C@H](C)c5c(Cl)cncc5Cl)cc34)cn2)C1 [Compound 39, (R)-5-(1-(3,5-dichloropyridin-4-yl)ethoxy)-N-(1-((1-ethyl-azetidin-3-yl)methyl)-1H-pyrazol-4-yl)-1H-indazole-3-carboxamide]
0.82	0.31	1	115	C[C@@H](Oc1ccc2[nH]nc(C(=O)Nc3cnn(C4CCC(O)CC4)c3)c2c1)c1c(Cl)cncc1Cl (stereo partly drawn) [Compound 48, (R)-5-(1-(3,5-dichloropyridin-4-yl)ethoxy)-N-(1-(4-hydroxycyclohexyl)-1H-pyrazol-4-yl)-1H-indazole-3-carboxamide]
7.3	2.1	20	581	CC(Oc1ccc2[nH]nc(C(=O)Nc3cnn(C4CCC4)c3)c2c1)c1c(Cl)cncc1Cl (stereo not shown) [Compound 27, N-(1-cyclobutyl-1H-pyrazol-4-yl)-5-(1-(3,5-dichloropyridin-4-yl)ethoxy)-1H-indazole-3-carboxamide]
0.07	0.11	0.93	54	CCN1CC(n2cc(NC(=O)c3n[nH]c4ccc(O[C@H](C)c5c(Cl)cncc5Cl)cc34)cn2)C1 [Compound 31, (R)-5-(1-(3,5-dichloropyridin-4-yl)ethoxy)-N-(1-(1-ethyl-azetidin-3-yl)-1H-pyrazol-4-yl)-1H-indazole-3-carboxamide]
